Tests used:
[1] = Colorant stabilization effect (photostabilizer, sunlight exposure); design: key to Sunlight exposure (80 MJ) Appearance: A: No change; B: No almost change; C: Yes change; key to Sunlight exposure (80 MJ) ΔE: ΔE color difference (Lab) vs. color before sunlight exposure; details: photostabilizer 0.05 wt %
Description: First of all, the photostabilization effect and appearance change of a composition in each pigment were studied by the following evaluation formulation.
Each test sample was prepared. Observation of appearance change (visual evaluation) and measurement of color difference (ΔE) were carried out in samples exposed to sunlight exposure (around 80 MJ).
Color difference was measured by Lab coordinate system with spectrophotometer. Color difference was calculated on the basis of the color before sunlight exposure. Namely, from measured value (L1,a1,b1) before sunlight exposure, color difference (ΔE) was calculated by following formula.

[2] = Perfume stabilization effect (photostabilizer, sunlight exposure, judgement by perfumier); design: key to Sunlight exposure (80 MJ) Smell evaluation / Sunlight exposure (80 MJ) evaluation: A: No change; B: No almost change; C: Yes change
Description: Next, the photostabilization effect for each perfume was studied by the following evaluation formulation.
Each test sample was prepared. Change of smell of sample exposed to sunlight (80 MJ) was observed (judgement by perfumier).

[3] = Drug stabilization effect (photostabilizer, sunlight exposure); design: key to Sunlight exposure (80 MJ) Appearance: A: No change; B: No almost change; C: Yes change; details: photostabilizer 0.05, amounts wt %
Description: Next, the photo stabilization effect and changes in appearance in drug compositions were studied according to the following evaluation formulation.
Each test sample was prepared. Appearance changes of the samples exposed to sunlight (80 MJ) was observed (visual evaluation). Also, residual yield was measured by liquid chromatography.

[4] = Red No. 106 0.00001 wt % + Yellow No. 5 0.0001 wt %
[5] = Red No. 106 0.00001 wt % + Yellow No. 203 0.0001 wt %
[6] = Red No. 213 0.00001 wt % + Blue No. 1 0.00001 wt %
[7] = Red No. 227 0.0001 wt % + Yellow No. 5 0.0001 wt %
[8] = Red No. 227 0.0001 wt % + Yellow No. 203 0.0001 wt %
[9] = Red No. 401 0.0001 wt % + Blue No. 1 0.00001 wt %
[10] = Red No. 401 0.0001 wt % + Green No. 3 0.00001 wt %
[11] = Yellow No. 203 0.0001 wt % + Yellow No. 5 0.0001 wt %
[12] = drug 2-o-α-α-glucopyranosyl-L-ascorbic acid 2.0
[13] = drug Dibutylhydroxytoluene 0.01
[14] = drug Dipotassium glycyrrhizinate 0.05
[15] = drug L-ascorbic acid 2-(dl-α-tocopheryl hydrogen phosphate) potassium salt 0.01

**Q.** Which “Sunlight exposure (80 MJ) Appearance” value ([1]; Blue No. 1 0.0001 wt %) does the source give for `COc1ccc(C(=O)CC(=O)c2ccc(C(C)(C)C)cc2)cc1` [4-tert-Butyl-4′-methoxy-di-benzoylmethane, reference compound] here?
**A.** The value was “B”.

**Q.** And the “Sunlight exposure (80 MJ) ΔE” value ([1]; Blue No. 1 0.0001 wt %)?
**A.** The value was 1.49.

**Q.** And the “Sunlight exposure (80 MJ) Appearance” value ([1]; Green No. 3 0.0001 wt %)?
**A.** Its value is “B”.

**Q.** What about the “Sunlight exposure (80 MJ) ΔE” value ([1]; Green No. 3 0.0001 wt %) of the same compound?
**A.** Its value is 0.62.

**Q.** And the “Sunlight exposure (80 MJ) Appearance” value [1, 4]?
**A.** The value was “B”.

**Q.** And the “Sunlight exposure (80 MJ) ΔE” value [1, 4]?
**A.** Its value is 0.92.

**Q.** And the “Sunlight exposure (80 MJ) Appearance” value [1, 5]?
**A.** Its value is “B”.

**Q.** What about the “Sunlight exposure (80 MJ) ΔE” value [1, 5] of the same compound?
**A.** The value was 1.02.

**Q.** And the “Sunlight exposure (80 MJ) Appearance” value ([1]; Red No. 106 0.0001 wt %)?
**A.** Its value is “B”.

**Q.** What about the “Sunlight exposure (80 MJ) ΔE” value ([1]; Red No. 106 0.0001 wt %) of the same compound?
**A.** The value was 1.02.

**Q.** What about the “Sunlight exposure (80 MJ) Appearance” value [1, 6] of the same compound?
**A.** Its value is “B”.

**Q.** What about the “Sunlight exposure (80 MJ) ΔE” value [1, 6] of the same compound?
**A.** Its value is 1.17.

**Q.** What about the “Sunlight exposure (80 MJ) Appearance” value ([1]; Red No. 213 0.0001 wt %) of the same compound?
**A.** Its value is “B”.

**Q.** What about the “Sunlight exposure (80 MJ) ΔE” value ([1]; Red No. 213 0.0001 wt %) of the same compound?
**A.** The value was 1.02.

**Q.** What about the “Sunlight exposure (80 MJ) Appearance” value [1, 7] of the same compound?
**A.** Its value is “B”.

**Q.** And the “Sunlight exposure (80 MJ) ΔE” value [1, 7]?
**A.** Its value is 0.80.

**Q.** What about the “Sunlight exposure (80 MJ) Appearance” value [1, 8] of the same compound?
**A.** Its value is “B”.

**Q.** And the “Sunlight exposure (80 MJ) ΔE” value [1, 8]?
**A.** Its value is 1.12.

**Q.** What about the “Sunlight exposure (80 MJ) Appearance” value ([1]; Red No. 227 0.0001 wt %) of the same compound?
**A.** The value was “B”.

**Q.** And the “Sunlight exposure (80 MJ) ΔE” value ([1]; Red No. 227 0.0001 wt %)?
**A.** Its value is 0.95.

**Q.** And the “Sunlight exposure (80 MJ) Appearance” value [1, 9]?
**A.** Its value is “B”.

**Q.** And the “Sunlight exposure (80 MJ) ΔE” value [1, 9]?
**A.** Its value is 0.93.

**Q.** And the “Sunlight exposure (80 MJ) Appearance” value [1, 10]?
**A.** The value was “B”.

**Q.** What about the “Sunlight exposure (80 MJ) ΔE” value [1, 10] of the same compound?
**A.** Its value is 0.99.

**Q.** What about the “Sunlight exposure (80 MJ) Appearance” value ([1]; Red No. 401 0.001 wt %) of the same compound?
**A.** The value was “B”.

**Q.** And the “Sunlight exposure (80 MJ) ΔE” value ([1]; Red No. 401 0.001 wt %)?
**A.** Its value is 1.02.

**Q.** And the “Sunlight exposure (80 MJ) Appearance” value ([1]; Yellow No. 5 0.001 wt %)?
**A.** Its value is “B”.

**Q.** And the “Sunlight exposure (80 MJ) ΔE” value ([1]; Yellow No. 5 0.001 wt %)?
**A.** The value was 0.88.

**Q.** What about the “Sunlight exposure (80 MJ) Appearance” value [1, 11] of the same compound?
**A.** The value was “A”.

**Q.** What about the “Sunlight exposure (80 MJ) ΔE” value [1, 11] of the same compound?
**A.** Its value is 0.48.

**Q.** What about the “Sunlight exposure (80 MJ) Appearance” value ([1]; Yellow No. 203 0.001 wt %) of the same compound?
**A.** The value was “B”.

**Q.** And the “Sunlight exposure (80 MJ) ΔE” value ([1]; Yellow No. 203 0.001 wt %)?
**A.** Its value is 0.68.

**Q.** What about the “Sunlight exposure (80 MJ) Smell evaluation” value ([2]; Base perfume Fruity 0.03 wt %, photostabilizer 0.1 wt %) of the same compound?
**A.** The value was “B”.

**Q.** And the “Sunlight exposure (80 MJ) Smell evaluation” value ([2]; Base perfume Muguet 0.03 wt %, photostabilizer 0.05 wt %)?
**A.** The value was “B”.

**Q.** What about the “Sunlight exposure (80 MJ) Smell evaluation” value ([2]; Base perfume Rose 0.03 wt %, photostabilizer 0.05 wt %) of the same compound?
**A.** Its value is “B”.

**Q.** What about the “Sunlight exposure (80 MJ) Smell evaluation” value ([2]; Base perfume Spicy 0.03 wt %, photostabilizer 0.2 wt %) of the same compound?
**A.** The value was “B”.

**Q.** What about the “Sunlight exposure (80 MJ) Smell evaluation” value ([2]; Base perfume Woody 0.03 wt %, photostabilizer 0.1 wt %) of the same compound?
**A.** The value was “B”.

**Q.** And the “Sunlight exposure (80 MJ) Smell evaluation” value ([2]; Natural perfume Jasmine oil 0.03 wt %, photostabilizer 0.05 wt %)?
**A.** The value was “B”.

**Q.** And the “Sunlight exposure (80 MJ) Smell evaluation” value ([2]; Natural perfume Lavender oil 0.03 wt %, photostabilizer 0.1 wt %)?
**A.** Its value is “B”.

**Q.** And the “Sunlight exposure (80 MJ) Smell evaluation” value ([2]; Natural perfume Neroli oil 0.03 wt %, photostabilizer 0.1 wt %)?
**A.** The value was “B”.

**Q.** What about the “Sunlight exposure (80 MJ) Smell evaluation” value ([2]; Natural perfume Rose oil 0.03 wt %, photostabilizer 0.05 wt %) of the same compound?
**A.** The value was “B”.

**Q.** And the “Sunlight exposure (80 MJ) Smell evaluation” value ([2]; Natural perfume Ylang ylang oil 0.03 wt %, photostabilizer 0.2 wt %)?
**A.** The value was “B”.

**Q.** And the “Sunlight exposure (80 MJ) Smell evaluation” value ([2]; Synthetic perfume Citral 0.03 wt %, photostabilizer 0.1 wt %)?
**A.** The value was “B”.

**Q.** What about the “Sunlight exposure (80 MJ) Smell evaluation” value ([2]; Synthetic perfume Limonene 0.03 wt %, photostabilizer 0.05 wt %) of the same compound?
**A.** Its value is “B”.

**Q.** And the “Sunlight exposure (80 MJ) Smell evaluation” value ([2]; Synthetic perfume Linalool 0.03 wt %, photostabilizer 0.05 wt %)?
**A.** Its value is “B”.

**Q.** And the “Sunlight exposure (80 MJ) Smell evaluation” value ([2]; Synthetic perfume Linalyl acetate 0.03 wt %, photostabilizer 0.1 wt %)?
**A.** Its value is “B”.

**Q.** What about the “Sunlight exposure (80 MJ) Smell evaluation” value ([2]; Synthetic perfume Rose oxide 0.03 wt %, photostabilizer 0.2 wt %) of the same compound?
**A.** The value was “B”.

**Q.** And the “Sunlight exposure (80 MJ) Appearance” value [3, 12]?
**A.** Its value is “B”.

**Q.** What about the “Sunlight exposure (80 MJ) Residual yield [%]” value [3, 12] of the same compound?
**A.** Its value is 97.0%.

**Q.** And the “Sunlight exposure (80 MJ) Appearance” value [3, 13]?
**A.** The value was “B”.

**Q.** What about the “Sunlight exposure (80 MJ) Residual yield [%]” value [3, 13] of the same compound?
**A.** Its value is 95.2%.

**Q.** And the “Sunlight exposure (80 MJ) Appearance” value [3, 14]?
**A.** Its value is “B”.

**Q.** What about the “Sunlight exposure (80 MJ) Residual yield [%]” value [3, 14] of the same compound?
**A.** The value was 96.6%.

**Q.** And the “Sunlight exposure (80 MJ) Appearance” value [3, 15]?
**A.** Its value is “B”.

**Q.** And the “Sunlight exposure (80 MJ) Residual yield [%]” value [3, 15]?
**A.** The value was 94.5%.

**Q.** What about the “Sunlight exposure (80 MJ) Appearance” value ([3]; drug Salicylic acid 0.1) of the same compound?
**A.** The value was “B”.

**Q.** What about the “Sunlight exposure (80 MJ) Residual yield [%]” value ([3]; drug Salicylic acid 0.1) of the same compound?
**A.** The value was 97.2%.

Reference: patent publication US6395896B2, “Pyridazine derivatives, manufacturing method and related composition” (Shiseido Co., Ltd., priority 1999, dated 2002)
